The values below come from patent US20110160213A1, “PHARMACEUTICAL COMPOSITIONS FOR THE TREATMENT OF INFLAMMATORY AND ALLERGIC DISORDERS” (Glenmark Pharmaceuticals, S.A., priority 2007, published 2011).

The series is described as follows: Solubility by shake flask method in various media. The class given is physicochemical. To be noted: for Solubility: about 37° C., after 24 hours.

As for `O=C(Nc1c(Cl)c[n+]([O-])cc1Cl)c1ccc(OC(F)F)c2oc3ccncc3c12.[Na]` [3,5-dichloro-4-(6-difluoromethoxybenzo[4,5]furo[3,2-c]pyridin-9-ylcarboxamido)-1-pyridiniumolate, sodium salt], the Solubility reads like this: (0.1N HCl with 1% sodium lauryl sulphate) 8.81 mg/250 ml; (0.1N HCl) 9.17 mg/250 ml; (Acetate buffer pH 4.5) 1.69 mg/250 ml; (Acetate buffer pH 4.5 with 0.1% SLS) 4.81 mg/250 ml; (Citrate buffer pH 3.0) 6.02 mg/250 ml; (Citrate buffer pH 3.0 with 1% Triton X) 8.6 mg/250 ml. The Solubility (Water) is listed as 0.68 mg/250 ml. Also, the “Solubility in water (in words)” value (water) is “poor solubility in water”.
